Data on 32 compounds can be found in patent US10005767B2, “Compositions and methods for inhibition of the JAK pathway” (Rigel Pharmaceuticals, Inc., priority 2009, dated 2018).

Structures can show the parent of a compound that is named as a salt.

One test concerns human primary T-cells, IL-2 stimulated proliferation (JAK-1 and JAK-3 dependent; reported as JAK3 activity). Kind of test: Human primary T-cell proliferation stimulated by IL-2 (Example 3). It counts as cell-based. Conditions: Homo sapiens, T-cell, tested under conditions described in Example 3 (IL-2 stimulated human primary T-cell proliferation); read-out: ability to inhibit JAK3 activity, IC50 range (Table V). In outline:
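Peripheral-blood human T-cells pre-activated via TCR/CD28, IL-2-starved overnight, then cultured 72 h at 37 °C with compound in Yssel's medium containing IL-2 (80 U/mL in cell suspension). Proliferation read as viable-cell ATP by CellTiter-Glo luminescence; reduction versus control taken as JAK pathway inhibition.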
Take `CCN1CCN(c2ncc(Nc3ncc(C)c(Nc4ccc5oc(=O)[nH]c5c4)n3)cc2C(F)(F)F)CC1` [II-110, N4-(benzo[d]oxazolin-2(3H)-one-5-yl)-N2-[2-(4-ethylpiperazin-1-yl)-3-trifluoromethylpyridine-5-yl]-5-methyl-2,4-pyrimidinediamine]: the IC50 was below 500 nM.

Take `Cc1cnc(Nc2ccc(O)cc2)nc1Nc1ccc2oc(=O)[nH]c2c1` [Compound I-425, 5-[2-(4-Hydroxy-phenylamino)-5-methyl-pyrimidin-4-ylamino]-3H-benzooxazol-2-one]: the IC50 was below 500 nM.

On to `COc1cc(Nc2ncc(C)c(Nc3cc(F)c4oc(=O)[nH]c4c3)n2)cc(C(F)(F)F)c1` [Compound I-251, 7-fluoro-5-(2-(3-methoxy-5-(trifluoromethyl)phenylamino)-5-methylpyrimidin-4-ylamino)benzo[d]oxazol-2(3H)-one], for which the IC50 was below 500 nM.

For `CCOc1ccc(Nc2ncc(C)c(Nc3ccc4oc(=O)[nH]c4c3)n2)cc1C(F)(F)F` [Compound I-168, 5-[2-(4-Ethoxy-3-trifluoromethyl-phenylamino)-5-methyl-pyrimidin-4-ylamino]-3H-benzooxazol-2-one], the IC50 lay in the range of 500 to 5000 nM.

Regarding `[2H]C([2H])([2H])Oc1ccc(Nc2ncc(C)c(Nc3ccc4oc(=O)[nH]c4c3)n2)cc1C` [Compound I-264, 5-(2-(3-methyl-4-trideuteromethoxyphenylamino)-5-methylpyrimidin-4-ylamino)benzo[d]oxazol-2(3H)-one], the IC50 is below 500 nM. In the case of `COc1ccc(C(F)(F)F)cc1Nc1ncc(C)c(Nc2ccc3oc(=O)[nH]c3c2)n1` [Compound I-498, 5-[2-(2-Methoxy-5-trifluoromethyl-phenylamino)-5-methyl-pyrimidin-4-ylamino]-3H-benzooxazol-2-one], the IC50 lay within 500 to 5000 nM.

Turning to `Cc1cnc(Nc2ccc(-c3cccnc3)c(F)c2)nc1Nc1ccc2oc(=O)[nH]c2c1` [Compound I-505, 5-(2-(3-fluoro-4-(pyridin-3-yl)phenylamino)-5-methylpyrimidin-4-ylamino)benzo[d]oxazol-2(3H)-one trifluoroacetic acid salt], the IC50 is above 10000 nM.

`Cc1cnc(Nc2ccc(N(C)[C@H]3CCCNC3)nc2)nc1Nc1ccc2oc(=O)[nH]c2c1` [II-103, (S)-5-(5-methyl-2-(6-(methyl(piperidin-3-yl)amino)pyridin-3-ylamino)pyrimidin-4-ylamino)benzo[d]oxazol-2(3H)-one]: the IC50 was below 500 nM.

As for `CCc1ccc(Nc2ncc(C)c(Nc3ccc4oc(=O)[nH]c4c3)n2)cc1` [Compound I-504, 5-(2-(4-ethylphenylamino)-5-methylpyrimidin-4-ylamino)benzo[d]oxazol-2(3H)-one], the half-maximal inhibitory concentration (IC50) is below 500 nM.

Consider `Cc1ccc(Nc2ncc(C)c(Nc3ccc4oc(=O)[nH]c4c3)n2)cc1` [Compound I-421, 5-(2-(p-toluidino)-5-methylpyrimidin-4-ylamino)benzo[d]oxazol-2(3H)-one], for which the concentration for half-maximal inhibition (IC50) was below 500 nM. For the compound `Cc1cnc(Nc2ccc(N3CCC(NC(=O)C(F)(F)F)C3)nc2)nc1Nc1ccc2oc(=O)[nH]c2c1` (centres unmarked) [II-83, 2,2,2-trifluoro-N-(1-(5-(5-methyl-4-(2-oxo-2,3-dihydrobenzo[d]oxazol-5-ylamino)pyrimidin-2-ylamino)pyridin-2-yl)pyrrolidin-3-yl)acetamide], the IC50 was below 500 nM. For `COc1ccc(Nc2ncc(C)c(Nc3ccc4oc(=O)[nH]c4c3)n2)cc1C(=O)N(C)C` [Compound I-260, 2-methoxy-N,N-dimethyl-5-(5-methyl-4-(2-oxo-2,3-dihydrobenzo[d]oxazol-5-ylamino)pyrimidin-2-ylamino)benzamide], the concentration for half-maximal inhibition (IC50) was below 500 nM.

With `COc1cc(C)cc(Nc2ncc(C)c(Nc3cc(F)c4oc(=O)[nH]c4c3)n2)c1` [Compound I-430, 7-fluoro-5-(2-(3-methoxy-5-methylphenylamino)-5-methylpyrimidin-4-ylamino)benzo[d]oxazol-2(3H)-one], the IC50 was below 500 nM.

As to `Cc1cnc(Nc2cccc(C(N)=O)c2)nc1Nc1ccc2oc(=O)[nH]c2c1` [Compound I-2, N4-(benzo[d]oxazol-2(3H)-on-5-yl)-N2-(3-aminocarbonylphenyl)-5-methylpyrimidine-2,4-diamine], the IC50 is below 500 nM. Same read-out and setting: the same measure for `Cc1cnc(Nc2cccc(C(C)N3CCCC3)c2)nc1Nc1ccc2oc(=O)[nH]c2c1` (centres unmarked) [Compound I-212, 5-(5-methyl-2-(3-(1-(pyrrolidin-1-yl)ethyl)phenylamino)pyrimidin-4-ylamino)benzo[d]oxazol-2(3H)-one]: below 500 nM; for `[2H]C([2H])([2H])Oc1cc(C)cc(Nc2ncc(C)c(Nc3ccc4oc(=O)[nH]c4c3)n2)c1` [Compound I-266, 5-(2-(3-methyl-5-trideuteromethoxyphenylamino)-5-methylpyrimidin-4-ylamino)benzo[d]oxazol-2(3H)-one]: below 500 nM; for `COc1cc(Nc2ncc(C)c(Nc3ccc4oc(=O)[nH]c4c3)n2)cc(C(=O)N2CCN(C)CC2)c1` [Compound I-255, 5-(2-(3-methoxy-5-(4-methylpiperazine-1-carbonyl)phenylamino)-5-methylpyrimidin-4-ylamino)benzo[d]oxazol-2(3H)-one]: below 500 nM. Consider `CCOc1cc(Nc2ncc(C)c(Nc3ccc4oc(=O)[nH]c4c3)n2)ccc1Cl` [Compound I-182, 5-[2-(4-Chloro-3-ethoxy-phenylamino)-5-methyl-pyrimidin-4-ylamino]-3H-benzooxazol-2-one], for which the half-maximal inhibitory concentration (IC50) was below 500 nM. On to `Cc1cnc(Nc2ccc(N3C[C@@H](C)N(C)[C@@H](C)C3)nc2)nc1Nc1ccc2oc(=O)[nH]c2c1` [II-127, 5-methyl-N4-(2-oxo-2,3-dihydro-1,3-benzoxazol-5-yl)-N2-[2-(cis-3,4,5-trimethylpiperazino)pyridin-5-yl]-2,4-pyrimidinediamine], for which the IC50 was below 500 nM.

Still in this test, the particulars now being: tested under conditions described in Example 3 (IL-2 stimulated human primary T-cell proliferation); read-out: ability to inhibit JAK3 activity, IC50 range (Table V).
As for `COCCCOc1ccc(Nc2ncc(C)c(Nc3ccc4oc(=O)[nH]c4c3)n2)cn1` [II-149, N2-[2-(3-methoxy)propoxypyridin-5-yl]-5-methyl-N4-(2-oxo-2,3-dihydro-1,3-benzoxazol-5-yl)-2,4-pyrimidinediamine], the IC50 was below 500 nM.

For the compound `COc1cc(Nc2ncc(C)c(Nc3ccc4oc(=O)[nH]c4c3)n2)cc(C(F)(F)F)c1` [Compound I-228, 5-(2-(3-deuteratedmethoxy-5-(trifluoromethyl)phenylamino)-5-methylpyrimidin-4-ylamino)benzo[d]oxazol-2(3H)-one], the IC50 is below 500 nM. Consider `Cn1c(=O)oc2cc(Nc3nc(Nc4ccc(S(C)(=O)=O)cc4)ncc3F)ccc21` [Compound I-60], for which the IC50 was above 10000 nM.

Turning to `Cc1cnc(Nc2ccc(N3CCC(F)(F)CC3)c(F)c2)nc1Nc1ccc2oc(=O)[nH]c2c1` [Compound I-275, N2-[4-(4,4-difluoropiperidinyl)-3-fluoro]phenyl-5-methyl-N4-(2-oxo-2,3-dihydro-1,3-benzoxazol-5-yl)-2,4-pyrimidinediamine], the 50% inhibitory concentration (IC50) is below 500 nM.

On to `Cc1cnc(Nc2ccc(N3CCN4CCC[C@@H]4C3)nc2)nc1Nc1ccc2oc(=O)[nH]c2c1` [II-132, N2-[2-(R-1,4-diazabicylco[4.3.0]nonan-4-yl)pyridin-5-yl]-5-methyl-N4-(2-oxo-2,3-dihydro-1,3-benzoxazol-5-yl)-2,4-pyrimidinediamine], for which the 50% inhibitory concentration (IC50) is below 500 nM. Regarding `Cc1cnc(Nc2ccc(F)c(C(F)(F)F)c2)nc1Nc1ccc2oc(=O)[nH]c2c1` [Compound I-361, N2-(4-fluoro-3-trifluoromethyl)phenyl-5-methyl-N4-(2-oxo-2,3-dihydro-1,3-benzoxazol-5-yl)-2,4-pyrimidinediamine], the IC50 is below 500 nM. In the case of `Cc1cnc(Nc2cc(C(N)=O)cc(C(F)(F)F)c2)nc1Nc1ccc2oc(=O)[nH]c2c1` [Compound I-370, N2-(3-carboxamide-5-trifluoromethyl)phenyl-5-methyl-N4-(2-oxo-2,3-dihydro-1,3-benzoxazol-5-yl)-2,4-pyrimidinediamine], the IC50 was below 500 nM. As for `Cc1cnc(Nc2ccc(S(N)(=O)=O)cc2)nc1Nc1ccc2oc(=O)[nH]c2c1` [Compound I-15], the IC50 is below 500 nM. Turning to `COc1cc(Nc2ncc(C)c(Nc3ccc4oc(=O)[nH]c4c3)n2)ccc1C(F)(F)F` [Compound I-354, N2-(3-methoxy-4-trifluoromethyl)phenyl-5-methyl-N4-(2-oxo-2,3-dihydro-1,3-benzoxazol-5-yl)-2,4-pyrimidinediamine], the IC50 was below 500 nM. With `COc1ccc(Nc2ncc(C)c(Nc3ccc4oc(=O)[nH]c4c3)n2)cc1OCc1ccncc1` [Compound I-298, N2-{4-methoxy-3-[(pyridin-4-yl)methoxy]}phenyl-5-methyl-N4-(2-oxo-2,3-dihydro-1,3-benzoxazol-5-yl)-2,4-pyrimidinediamine], the concentration for half-maximal inhibition (IC50) was below 500 nM. For the compound `Cn1c(=O)oc2ccc(Nc3nc(Nc4cccc(S(C)(=O)=O)c4)ncc3F)cc21` [Compound I-77, N2-((3-methylsulfonyl)phenyl)-N4-(3-methyl-2-oxo-2,3-dihydrobenzo[d]oxazol-5-yl)-5-fluoropyrimidine-2,4-diamine], the IC50 lay within 500 to 5000 nM.

Take `Cc1cnc(Nc2ccc(N3CCN(C)CC3)c(C#N)c2)nc1Nc1ccc2oc(=O)[nH]c2c1` [Compound I-341, N2-[3-cyano-4-(4-methylpiperazino)]phenyl-5-methyl-N4-(2-oxo-2,3-dihydro-1,3-benzoxazol-5-yl)-2,4-pyrimidinediamine]: the IC50 was below 500 nM. On the same count and under the same terms, the same measure for `Cc1cnc(Nc2ccc(F)c(C#N)c2)nc1Nc1ccc2oc(=O)[nH]c2c1` [Compound I-294, N2-(3-cyano-4-fluoro)phenyl-5-methyl-N4-(2-oxo-2,3-dihydro-1,3-benzoxazol-5-yl)-2,4-pyrimidinediamine]: below 500 nM.

By IC50 is commonly meant the concentration at which inhibition is half-maximal.
